Measured values published in patent US9617283B2, “Bicyclic heterocycle compounds and their uses in therapy” (ASTEX THERAPEUTICS LIMITED, priority 2012, dated 2017).
Counter-ions that a name gives are not always drawn. Like-named read-outs stand apart in the source and are kept apart here.

How the values were obtained:
[1] = target: T1, BIR3 domain of human XIAP (residues 252-350) (Homo sapiens, UniProt P98170); test: XIAP in vitro competitive displacement binding assay (fluorescence polarization); conditions: 1 h, percent inhibition (PI) at 0.04 μM; read-out: Xiap IC50 or PI μM
T1 construct: BIR3 domain of human XIAP (residues 252-350); His-tag (cleaved yes); made in house; host or cells: Escherichia coli

[2] = tested on: EVSA-T (human breast carcinoma); test: Anti-proliferative activity, Alamar Blue assay, EVSA-T; assay type: cell-based
[3] = Homo sapiens, EVSA-T, 72 h, EVSA-T cell line, 72 hours, Alamar Blue, read-out: EVSA-T prolif
[4] = Homo sapiens, EVSA-T, read-out: EC50 in EVSA-T cell line assays
[5] = Homo sapiens, EVSA-T cell line, 72 hours, Alamar Blue, read-out: EVSA-T prolif

T1 sequence (P98170 252-350): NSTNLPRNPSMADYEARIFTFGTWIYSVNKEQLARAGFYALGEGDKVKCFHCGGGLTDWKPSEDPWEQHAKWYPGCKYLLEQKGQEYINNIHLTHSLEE

SMILES | EC50 [2, 3] [nM] | EC50 [2, 4] [nM] | other results
C[C@@H]1CN(CC(=O)N2CC(C)(C)c3nnc(Cc4ccc(F)cc4F)cc32)[C@@H](CN2Cc3ccc(O)cc3C2=O)CN1 [Example 115, 2-{[(2R,5R)-1-(2-{3-[(2,4-Difluorophenyl)methyl]-7,7-dimethyl-5H,6H,7H-pyrrolo[3,2-c]pyridazin-5-yl}-2-oxoethyl)-5-methylpiperazin-2-yl]methyl}-6-hydroxy-2,3-dihydro-1H-isoindol-1-one dihydrochloride] |  |  | inhibition at 0.04 µM [1]: 78%
C[C@@H]1CC(=O)N(C[C@H]2CN[C@H](C)CN2CC(=O)N2CC(C)(C)c3ncc(Cc4ccc(F)cc4)cc32)C1 [Example 16, (4R)-1-{[(2R,5R)-1-(2-{6-[(4-Fluorophenyl)methyl]-3,3-dimethyl-1H,2H,3H-pyrrolo[3,2-b]pyridin-1-yl}-2-oxoethyl)-5-methylpiperazin-2-yl]methyl}-4-methylpyrrolidin-2-one dihydrochloride] | 6 |  | 
C[C@H]1CC(=O)N(C[C@H]2CN[C@H](C)CN2CC(=O)N2CC(C)(C)c3ncc(Cc4ccc(F)cc4)cc32)C1 [Example 17, (4S)-1-{[(2R,5R)-1-(2-{6-[(4-Fluorophenyl)methyl]-3,3-dimethyl-1H,2H,3H-pyrrolo[3,2-b]pyridin-1-yl}-2-oxoethyl)-5-methylpiperazin-2-yl]methyl}-4-methylpyrrolidin-2-one dihydrochloride] | 3.1 | < 1000 | 
C[C@@H]1CN(CC(=O)N2CC(C)(C)c3ncc(Cc4ccc(F)cc4)cc32)[C@@H](CN2C(=O)[C@@H]3CC[C@H]2C3)CN1 [Example 8, (1S,4R)-2-{[(2R,5R)-1-(2-{6-[(4-Fluorophenyl)methyl]-3,3-dimethyl-1H,2H,3H-pyrrolo[3,2-b]pyridin-1-yl}-2-oxoethyl)-5-methylpiperazin-2-yl]methyl}-2-azabicyclo[2.2.1]heptan-3-one dihydrochloride] | 7.1 | < 1000 | 
C[C@@H]1CN(CC(=O)N2CC(C)(C)c3ncc(Cc4ccc(F)cc4)cc32)[C@@H](CN2C[C@@H](C)OC2=O)CN1 [Example 9, (5R)-3-{[(2R,5R)-1-(2-{6-[(4-Fluorophenyl)methyl]-3,3-dimethyl-1H,2H,3H-pyrrolo[3,2-b]pyridin-1-yl}-2-oxoethyl)-5-methylpiperazin-2-yl]methyl}-5-methyl-1,3-oxazolidin-2-one] | 5.9 | < 1000 | 
C[C@@H]1CN(CC(=O)N2CC(C)(C)c3ncc(Cc4ccc(F)cc4)cc32)[C@@H](CN2CC(=O)NCC2=O)CN1 [Example 22, 1-{[(2R,5R)-1-(2-{6-[(4-Fluorophenyl)methyl]-3,3-dimethyl-1H,2H,3H-pyrrolo[3,2-b]pyridin-1-yl}-2-oxoethyl)-5-methylpiperazin-2-yl]methyl}piperazine-2,5-dione] | 9.2 | < 1000 | 
C[C@@H]1CN(CC(=O)N2CC(C)(C)c3nnc(Cc4ccc(F)cc4F)cc32)[C@@H](CN2Cc3cc(C#N)ccc3C2=O)CN1 [Example 109, 2-{[(2R,5R)-1-(2-{3-[(2,4-Difluorophenyl)methyl]-7,7-dimethyl-5H,6H,7H-pyrrolo[3,2-c]pyridazin-5-yl}-2-oxoethyl)-5-methylpiperazin-2-yl]methyl}-1-oxo-2,3-dihydro-1H-isoindole-5-carbonitrile dihydrochloride] |  |  | EC50 [2, 5]: 0.64 nM
C[C@@H]1CN(CC(=O)N2CC(C)(C)c3ncc(Cc4ccc(F)cc4)cc32)[C@@H](CN2CCC(F)(F)C2=O)CN1 [Example 11, 3,3-Difluoro-1-{[(2R,5R)-1-(2-{6-[(4-fluorophenyl)methyl]-3,3-dimethyl-1H,2H,3H-pyrrolo[3,2-b]pyridin-1-yl}-2-oxoethyl)-5-methylpiperazin-2-yl]methyl}pyrrolidin-2-one dihydrochloride] |  |  | EC50 [2, 5]: 4.3 nM
C[C@@H]1CN(CC(=O)N2CC(C)(C)c3nnc(Cc4ccc(F)cc4F)cc32)[C@@H](CN2Cc3ccc(F)cc3C2=O)CN1 [Example 93, 2-{[(2R,5R)-1-(2-{3-[(2,4-Difluorophenyl)methyl]-7,7-dimethyl-5H,6H,7H-pyrrolo[3,2-c]pyridazin-5-yl}-2-oxoethyl)-5-methylpiperazin-2-yl]methyl}-6-fluoro-2,3-dihydro-1H-isoindol-1-one dihydrochloride] |  |  | EC50 [2, 5]: 0.5 nM
C[C@@H]1CN(CC(=O)N2CC(C)(C)c3nnc(Cc4ccc(F)cc4F)cc32)[C@@H](CN2Cc3cc(F)ccc3C2=O)CN1 [Example 103, 2-{[(2R,5R)-1-(2-{3-[(2,4-Difluorophenyl)methyl]-7,7-dimethyl-5H,6H,7H-pyrrolo[3,2-c]pyridazin-5-yl}-2-oxoethyl)-5-methylpiperazin-2-yl]methyl}-5-fluoro-2,3-dihydro-1H-isoindol-1-one dihydrochloride] |  |  | EC50 [2, 5]: 0.18 nM
C[C@@H]1CN(CC(=O)N2CC(C)(C)c3ncc(Cc4ccc(F)cc4)cc32)[C@@H](CN2CCOCCC2=O)CN1 [Example 2, 4-{[(2R,5R)-1-(2-{6-[(4-Fluorophenyl)methyl]-3,3-dimethyl-1H,2H,3H-pyrrolo[3,2-b]pyridin-1-yl}-2-oxoethyl)-5-methylpiperazin-2-yl]methyl}-1,4-oxazepan-5-one hydrochloride] | 6.5 | < 1000 | 

More lines, main results first:

EC50 [2, 3] [nM] | EC50 [2, 4] [nM] | SMILES | other results
1.1 | < 1000 | CCC1CC(=O)N(C[C@H]2CN[C@H](C)CN2CC(=O)N2CC(C)(C)c3cnc(Cc4ccc(F)cc4F)cc32)C1 (single isomer, unassigned) [Example 83, (4R or 4S)-1-{[(2R,5R)-1-(2-{6-[(2,4-Difluorophenyl)methyl]-3,3-dimethyl-1H,2H,3H-pyrrolo[3,2-c]pyridin-1-yl}-2-oxoethyl)-5-methylpiperazin-2-yl]methyl}-4-ethylpyrrolidin-2-one dihydrochloride] | 
1.9 | < 1000 | C[C@@H]1CN(CC(=O)N2CC(C)(C)c3ncc(Cc4ccc(F)cc4)cc32)[C@@H](CN2C(=O)CO[C@@H](C)[C@H]2C)CN1 [Example 25, (5R,6S)-4-{[(2R,5R)-1-(2-{6-[(4-Fluorophenyl)methyl]-3,3-dimethyl-1H,2H,3H-pyrrolo[3,2-b]pyridin-1-yl}-2-oxoethyl)-5-methylpiperazin-2-yl]methyl}-5,6-dimethylmorpholin-3-one, dihydrochloride] | 
 | < 1000 | C[C@@H]1CN(CC(=O)N2CC(C)(C)c3ncc(Cc4ccc(F)cc4F)cc32)[C@@H](CN2Cc3ncccc3C2=O)CN1 [Example 62, 6-{[(2R,5R)-1-(2-{6-[(2,4-Difluorophenyl)methyl]-3,3-dimethyl-1H,2H,3H-pyrrolo[3,2-b]pyridin-1-yl}-2-oxoethyl)-5-methylpiperazin-2-yl]methyl}-5H,6H,7H-pyrrolo[3,4-b]pyridin-5-one] | 
 | < 1000 | C[C@@H]1CN(CC(=O)N2CC(C)(C)c3nnc(Cc4ccc(F)cc4)cc32)[C@@H](CN2C[C@H](C)OCC2=O)CN1 [Example 53, (6S)-4-{[(2R,5R)-1-(2-{3-[(4-Fluorophenyl)methyl]-7,7-dimethyl-5H,6H,7H-pyrrolo[3,2-c]pyridazin-5-yl}-2-oxoethyl)-5-methylpiperazin-2-yl]methyl}-6-methylmorpholin-3-one] | 
 | < 1000 | CCCC(F)(F)c1cc2c(cn1)C(C)(C)CN2C(=O)CN1C[C@@H](C)NC[C@@H]1CN1CC(CC)OCC1=O (single isomer, unassigned) [Example 88, 4-{[(2R,5R)-1-{2-[6-(1,1-Difluorobutyl)-3,3-dimethyl-1H,2H,3H-pyrrolo[3,2-c]pyridin-1-yl]-2-oxoethyl}-5-methylpiperazin-2-yl]methyl}-(R or S)-6-ethylmorpholin-3-one dihydrochloride] | EC50 ([2]; EVSA-T cell line, 72 hours, Alamar Blue, dihydrochloride, read-out: EVSA-T prolif): 14 nM
2.3 | < 1000 | C[C@H]1CC(=O)N(C[C@H]2CN[C@H](C)CN2CC(=O)N2CC(C)(C)c3nnc(Cc4ccc(F)cc4F)cc32)C1 [Example 46, (4S)-1-{[(2R,5R)-1-(2-{3-[(2,4-Difluorophenyl)methyl]-7,7-dimethyl-5H,6H,7H-pyrrolo[3,2-c]pyridazin-5-yl}-2-oxoethyl)-5-methylpiperazin-2-yl]methyl}-4-methylpyrrolidin-2-one dihydrochloride] | 
2.9 | < 1000 | C[C@H]1CC(=O)N(C[C@H]2CN[C@H](C)CN2CC(=O)N2CC(C)(C)c3nnc(Cc4ccc(F)cc4)cc32)C1 [Example 47, (4S)-1-{[(2R,5R)-1-(2-{3-[(4-Fluorophenyl)methyl]-7,7-dimethyl-5H,6H,7H-pyrrolo[3,2-c]pyridazin-5-yl}-2-oxoethyl)-5-methylpiperazin-2-yl]methyl}-4-methylpyrrolidin-2-one dihydrochloride] | 
25 | < 1000 | COC[C@@H]1CN(C[C@H]2CN[C@H](C)CN2CC(=O)N2CC(C)(C)c3nnc(Cc4ccc(F)cc4F)cc32)C(=O)CO1 [Example 101, (6S)-4-{[(2R,5R)-1-(2-{3-[(2,4-Difluorophenyl)methyl]-7,7-dimethyl-5H,6H,7H-pyrrolo[3,2-c]pyridazin-5-yl}-2-oxoethyl)-5-methylpiperazin-2-yl]methyl}-6-(methoxymethyl)morpholin-3-one dihydrochloride] | 
1.5 | < 1000 | CCC1CC(=O)N(C[C@H]2CN[C@H](C)CN2CC(=O)N2CC(C)(C)c3ncc(Cc4ccc(F)cc4)cc32)C1 (single isomer, unassigned) [Example 82, (4R or 4S)-4-Ethyl-1-{[(2R,5R)-1-(2-{6-[(4-fluorophenyl)methyl]-3,3-dimethyl-1H,2H,3H-pyrrolo[3,2-b]pyridin-1-yl}-2-oxoethyl)-5-methylpiperazin-2-yl]methyl}pyrrolidin-2-one dihydrochloride] | 
 | < 1000 | CCCC(F)(F)c1cnc2c(c1)N(C(=O)CN1C[C@@H](C)NC[C@@H]1CN1Cc3ncccc3C1=O)CC2(C)C [Example 66, 6-{[(2R,5R)-1-{2-[6-(1,1-Difluorobutyl)-3,3-dimethyl-1H,2H,3H-pyrrolo[3,2-b]pyridin-1-yl]-2-oxoethyl}-5-methylpiperazin-2-yl]methyl}-5H,6H,7H-pyrrolo[3,4-b]pyridin-5-one] | 
